The test system of test [1] is Lipaphis erysimi. Kind of test: Insecticidal activity against Lipaphis erysimi Kaltenbach. The test is classed as functional.
The test system of test [2] is U2OS. In words: Cytotoxicity against human U2OS cells after 36 hrs by MTT assay. It counts as functional, cell-based. (Formazan colour is commonly taken as a measure of viable cells.)
The test system of test [3] is MCF7. Kind of test: Cytotoxicity against human MCF7 cells after 36 hrs by MTT assay. It counts as functional, cell-based. The settings on record: MCF7, 36 h.
The test system of test [4] is P388. In words: Cytotoxicity against mouse P388 cells. It counts as functional. To be noted: read-out: ED50 (the source's name).

Converted amounts (≈) assume the structure as drawn. The source made the active and inactive calls. No cut-off for these calls is given here.

On to `CC(C)C(C)CC[C@](C)(O)[C@H]1[C@@H](O)C[C@H]2[C@@H]3[C@H](O)C=C4C[C@@H](O)CC[C@]4(C)[C@H]3CC[C@@]21C` (single isomer, unassigned), for which the outcome in test [1] was inactive. Also, the figures for the IC50 in test [2] and in test [3] were 9.4 µg/mL (≈ 20.9 µM) and 47.4 µg/mL (≈ 106 µM), respectively.
As for `C=C(C)C(CC[C@@H](C)[C@@H]1[C@@H](O)C[C@]2(C)C3=CC[C@H]4C(C)(C)C(=O)CC[C@]4(C)[C@H]3CC[C@@]12C)OO` (mixture of isomers) [MELIASENIN L], the result in test [1] was inactive. Moreover, the figures for the IC50 in test [2] and in test [3] were 9.5 µg/mL and 9.8 µg/mL, respectively.
With `CCCCCCCCCCCCCCCC(=O)O[C@H]1CC[C@]2(C)[C@H]3CC[C@@]4(C)[C@H]([C@@H]5C[C@H]([C@H](O)C(C)(C)O)O[C@@H]5OC)CC[C@]4(C)C3=CC[C@H]2C1(C)C` [MELIASENIN Q], the result in test [1] was inactive. Further, the IC50 in test [2] was 3.9 µg/mL (≈ 5.25 µM); in test [3], above 50 µg/mL.
For the compound `C=C(C)[C@@H](CC[C@H]1C(=O)O[C@H]2C[C@]3(C)C4=CC[C@H]5C(C)(C)C(=O)CC[C@]5(C)[C@H]4CC[C@@]3(C)[C@@H]21)OO` [MELIASENIN O], the outcome in test [1] was inactive. The IC50 in test [2] was determined as 23.9 µg/mL (≈ 49.3 µM); in test [3], 2.3 µg/mL (≈ 4.75 µM).
Turning to `O=c1[nH]cc(F)c(=O)[nH]1` [FLUOROURACIL], the figures for the IC50 in test [2] and in test [3] were 7.2 µg/mL (≈ 55.4 µM) and 34 µg/mL (≈ 261 µM), respectively.
Turning to `CC[C@H](CC[C@](C)(O)[C@H]1[C@@H](O)C[C@H]2[C@@H]3[C@H](O)C=C4C[C@@H](O)CC[C@]4(C)[C@H]3CC[C@@]21C)C(C)C`, the outcome in test [1] was inactive. Also, the IC50 is 23.2 µg/mL (≈ 50.1 µM) in test [2] and above 50 µg/mL in test [3].
With `CO[C@H]1O[C@@H]([C@@H]2OC2(C)C)C[C@H]1[C@@H]1CC[C@]2(C)C3=CC[C@H]4C(C)(C)[C@@H](O)CC[C@]4(C)[C@H]3CC[C@@]12C` [MELIASENIN P], the result in test [1] was inactive. Besides, the IC50 was found to be 48.7 µg/mL (≈ 100 µM) in test [2] and 6.4 µg/mL (≈ 13.1 µM) in test [3].
On to `C=C(C)[C@H](CC[C@H]1C(=O)O[C@H]2C[C@]3(C)C4=CC[C@H]5C(C)(C)C(=O)CC[C@]5(C)[C@H]4CC[C@@]3(C)[C@@H]21)OO` [MELIASENIN N], for which, in test [1], the result was inactive. Also, the IC50 in test [2] was 8.8 µg/mL (≈ 18.2 µM); in test [3], 3 µg/mL (≈ 6.19 µM).
For `COC(=O)[C@H](CCC=C(C)C)[C@@H]1[C@@H](O)C[C@]2(C)C3=CC[C@H]4C(C)(C)C(=O)CC[C@]4(C)[C@H]3CC[C@@]12C` [METHYL KULONATE], in test [1], the outcome was inactive. The figures for the IC50 in test [2] and in test [3] were 14.6 µg/mL (≈ 30.1 µM) and 0.41 µg/mL (≈ 0.846 µM), respectively. Also, the EC50 in test [4] stood at 1.7 µg/mL (≈ 3.51 µM).
On to `C[C@H](C/C=C/C(C)(C)OO)[C@@H]1[C@@H](O)C[C@]2(C)C3=CC[C@H]4C(C)(C)[C@@H](O)CC[C@]4(C)[C@H]3CC[C@@]12C` (relative stereo) [MELIASENIN I], for which the result in test [1] was inactive. For the same compound, the IC50 in test [2] turned out to be 9.5 µg/mL (≈ 20 µM); in test [3] it was 11.2 µg/mL (≈ 23.6 µM).
On to `C=C(C)C(CC[C@@H](C)[C@@H]1[C@@H](O)C[C@]2(C)C3=CC[C@H]4C(C)(C)CCC[C@]4(C)[C@H]3CC[C@@]12C)OO` (mixture of isomers) [MELIASENIN K], for which, in test [1], the outcome was inactive. In addition, the results for the IC50 in test [2] and in test [3] were 7.2 µg/mL and 2.4 µg/mL, respectively.
For the compound `C[C@H](C/C=C/C(C)(C)OO)[C@@H]1[C@@H](O)C[C@]2(C)C3=CC[C@H]4C(C)(C)C(=O)CC[C@]4(C)[C@H]3CC[C@@]12C` (relative stereo) [MELIASENIN J], the outcome in test [1] was inactive. Also, the IC50 in test [2] is 14.3 µg/mL (≈ 30.3 µM); in test [3], 1.1 µg/mL (≈ 2.33 µM).
With `CC(C)=CCC[C@@H](C)[C@@H]1[C@@H](O)C[C@]2(C)C3=CC[C@H]4C(C)(C)C(=O)CC[C@]4(C)[C@H]3CC[C@@]12C` [KULINONE], the outcome in test [1] was inactive. For the same compound, the IC50 came to 6.9 µg/mL (≈ 15.7 µM) in test [2] and 42.5 µg/mL (≈ 96.4 µM) in test [3]. Further, the EC50 in test [4] is 1.7 µg/mL (≈ 3.86 µM).
`COC(=O)[C@H](C/C=C/C(C)(C)OO)[C@@H]1[C@@H](O)C[C@]2(C)C3=CC[C@H]4C(C)(C)C(=O)CC[C@]4(C)[C@H]3CC[C@@]12C` [MELIASTATIN 3]: the outcome in test [1] was inactive. The values for the IC50 in test [2] and in test [3] were 31.1 µg/mL (≈ 60.2 µM) and 48.6 µg/mL (≈ 94.1 µM), respectively. Besides, the EC50 in test [4] turned out to be 1.7 µg/mL (≈ 3.29 µM).
Take `C=C(C)C(O)CC[C@@H](C)[C@@H]1[C@@H](O)C[C@]2(C)C3=CC[C@H]4C(C)(C)C(=O)CC[C@]4(C)[C@H]3CC[C@@]12C` (stereo partly specified) [MELIASTATIN 5]: the result in test [1] was inactive. The IC50 in test [2] was determined as 9.5 µg/mL (≈ 20.8 µM); in test [3] it was 16 µg/mL (≈ 35 µM). Moreover, the EC50 in test [4] came to 1.7 µg/mL (≈ 3.72 µM).
Regarding `CC(C)(/C=C/C[C@H]1C(=O)O[C@H]2C[C@]3(C)C4=CC[C@H]5C(C)(C)C(=O)CC[C@]5(C)[C@H]4CC[C@@]3(C)[C@@H]21)OO` [MELIASENIN M], the outcome in test [1] was inactive. Besides, the half-inhibitory concentration (IC50) in test [2] amounted to 29.2 µg/mL (≈ 60.2 µM); in test [3] it was 16.4 µg/mL (≈ 33.8 µM).

For orientation: IC50 means the concentration that inhibits the measured activity by half.
